This passage reports Ki results from patent US6803501B2 (Monsanto Technology, LLC, priority 2000, dated 2004).

Test [1] deals with T1, Z. mays glypS (wt) EPSPS (Zea mays, glyphosate sensitive, wild type) (Zea mays, UniProt A0A1D6NVZ6).
T1 sequence (A0A1D6NVZ6 63-506 limits assumed): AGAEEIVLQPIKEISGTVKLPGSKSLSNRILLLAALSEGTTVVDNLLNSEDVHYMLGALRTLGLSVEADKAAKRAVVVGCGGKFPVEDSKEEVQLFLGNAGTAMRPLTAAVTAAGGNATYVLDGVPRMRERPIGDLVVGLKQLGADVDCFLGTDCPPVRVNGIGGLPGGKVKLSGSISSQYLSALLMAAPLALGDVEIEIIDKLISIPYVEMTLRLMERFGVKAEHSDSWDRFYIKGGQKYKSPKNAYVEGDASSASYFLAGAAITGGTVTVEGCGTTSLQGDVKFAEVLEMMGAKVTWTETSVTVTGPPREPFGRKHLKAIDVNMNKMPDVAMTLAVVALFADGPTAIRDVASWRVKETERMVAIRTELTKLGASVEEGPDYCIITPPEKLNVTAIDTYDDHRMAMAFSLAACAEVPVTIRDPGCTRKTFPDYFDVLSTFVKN
The test can be described thus: kinetic characterization of EPSP synthase (Table 4). It counts as biochemical. On the procedure: (§1) Final sample volumes are approximately 0.5 ml.

For test [2], the target named is T2, P. hybrida EPSPS variant glypR (Gly-Ala, Pro-Ser) (Petunia hybrida, UniProt P11043, G173A/P178S).
T2 sequence (P11043 73-516 G173A/P178S): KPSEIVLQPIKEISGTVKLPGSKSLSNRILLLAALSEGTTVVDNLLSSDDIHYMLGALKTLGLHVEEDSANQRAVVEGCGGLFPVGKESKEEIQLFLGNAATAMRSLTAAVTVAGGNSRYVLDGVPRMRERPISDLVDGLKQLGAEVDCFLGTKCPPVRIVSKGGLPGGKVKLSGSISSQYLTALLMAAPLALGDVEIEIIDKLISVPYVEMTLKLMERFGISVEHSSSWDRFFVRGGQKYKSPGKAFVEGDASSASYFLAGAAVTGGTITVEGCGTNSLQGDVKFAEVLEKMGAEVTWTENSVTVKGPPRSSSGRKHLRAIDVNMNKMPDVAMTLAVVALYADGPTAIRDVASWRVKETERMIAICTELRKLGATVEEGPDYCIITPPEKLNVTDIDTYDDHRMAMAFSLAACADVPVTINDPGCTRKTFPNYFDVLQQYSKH
The description is as above. It counts as biochemical. On the procedure:
as §1

In the case of `O=C(O)CNCP(=O)(O)O` [glyphosate, N-phosphonomethylglycine], the inhibition constant Ki in test [1] came to 0.0002 mM; in test [2], 8.5 mM.
